{"source": "paper PMC7594722", "about": "“Investigation of pesticides on honey bee carbonic anhydrase inhibition” (Journal of Enzyme Inhibition and Medicinal Chemistry, 2020)", "key": {"[1]": {"biological_target": "AmCA (Apis mellifera spermatheca carbonic anhydrase)", "conditions": "AmCA inhibition data from previous study; cited from earlier work"}, "[2]": {"biological_target": "AmCA (Apis mellifera spermatheca carbonic anhydrase)", "test": "AmCA inhibition, colorimetric CO2 hydrase assay", "format": "biochemical", "conditions": "AmCA from honey bee spermatheca, triplicate, enzyme concentration 8.9 nM", "protocol": "Bee spermatheca samples were washed three times with 50 mM Tris/Sulphate (pH 7.8). Spermatecha samples taken from 200 bees were combined and homogenised with liquid nitrogen, then placed in the same buffer and centrifuged at 4 °C, 15,000 g for 30 min. The precipitate portion was discarded and the supernatant portion was separated and used in subsequent studies.\nThe enzyme was purified using Sepharose-4B-sulfanilamide affinity gel prepared by our group. Aniline was used as a spacer arm in the chromatography column. The column was then equilibrated with 25 mM Tris-HCl/0.1M Na2SO4 (pH 8.7) and the gel was washed with 25 mM Tris-HCl/22 mM Na2SO4 (pH 8.7). Finally, elution was performed with 1 M NaCl/25 mM Na2HPO4 (pH 6.3). The temperature was kept at 4 °C during all experiments.\nThe effects of methomyl, oxamyl, deltamethrin, dichlorodiphenyltrichloroethane ([…]), cypermethrin and diazinon on AmCA activities were assayed colorimetrically using the CO2 hydrase assay, in triplicate at each concentration of inhibitor (ranging from 1 nM to 10 mM). Control enzyme activity was taken as 100%. An activity % versus inhibitor graph was drawn for all pesticides (Microsoft Office 2000, Excel). Pesticide concentrations that caused 50% inhibition (IC50) of the enzyme activity were thus obtained graphically using a regression software. The enzyme concentration in the assay system was 8.9 nM."}, "[3]": {"test_system": "honey bees and bumblebees", "conditions": "cited from earlier work"}, "[4]": {"test_system": "honey bees and bumblebees", "conditions": "cited from earlier work", "remark": "listed apart in the source"}}, "note": "Where two headings read alike, the source gives them in different places."}
{"smiles": "CCNc1nc(Cl)nc(NC(C)C)n1", "note": "[Atrazine, atrazine]", "values": [{"measurement": "IC50", "setting": "[1]", "value": 16.5, "unit": "nM"}]}
{"smiles": "CNC(=O)Oc1cccc2ccccc12", "note": "[Carbaryl, carbaryl]", "values": [{"measurement": "IC50", "setting": "[1]", "value": 3.1, "unit": "nM"}]}
{"smiles": "CNC(=O)Oc1cccc2c1OC(C)(C)C2", "note": "[Carbonfuran, carbofuran]", "values": [{"measurement": "IC50", "setting": "[1]", "value": 8.7, "unit": "nM"}]}
{"smiles": "CC1(C)C(C=C(Cl)Cl)C1C(=O)OC(C#N)c1cccc(Oc2ccccc2)c1", "note": "(stereo not drawn) [Cypermethrin, cypermethrin]", "values": [{"measurement": "IC50", "setting": "[2]", "value": "7.8 ± 0.3", "unit": "nM"}, {"measurement": "oral dose rates (oral LD50)", "setting": "[3]", "value": 0.06, "unit": "μg/bee"}, {"measurement": "topical lethal dose (LD50)", "setting": "[4]", "value": 0.03, "unit": "μg/bee"}]}
{"smiles": "CC1(C)[C@H](C(=O)O[C@H](C#N)c2cccc(Oc3ccccc3)c2)[C@@H]1C=C(Br)Br", "note": "[Deltamethrin, deltamethrin]", "values": [{"measurement": "IC50", "setting": "[2]", "value": "2.8 ± 0.1", "unit": "nM"}, {"measurement": "topical lethal dose (LD50)", "setting": "[4]", "value": 0.02, "unit": "μg/bee"}]}
{"smiles": "CCOP(=S)(OCC)Oc1cc(C)nc(C(C)C)n1", "note": "[Diazinon, diazinon]", "values": [{"measurement": "IC50", "setting": "[2]", "value": "38.5 ± 1.2", "unit": "nM"}, {"measurement": "oral dose rates (oral LD50)", "setting": "[3]", "value": 0.21, "unit": "μg/bee"}, {"measurement": "topical lethal dose (LD50)", "setting": "[4]", "value": 0.38, "unit": "μg/bee"}]}
{"smiles": "CNC(=O)ON=C(C)SC", "note": "[Methomyl, methomyl]", "values": [{"measurement": "IC50", "setting": "[2]", "value": "2.3 ± 0.1", "unit": "nM"}, {"measurement": "oral dose rates (oral LD50)", "setting": "[3]", "value": 3.38, "unit": "μg/bee"}, {"measurement": "topical lethal dose (LD50)", "setting": "[4]", "value": 0.49, "unit": "μg/bee"}]}
{"smiles": "CNC(=O)O/N=C(\\SC)C(=O)N(C)C", "note": "[Oxamyl, oxamyl]", "values": [{"measurement": "IC50", "setting": "[2]", "value": "2.5 ± 0.1", "unit": "nM"}]}
{"smiles": "CNC(=O)Oc1ccccc1OC(C)C", "note": "[Propoxur, propoxur]", "values": [{"measurement": "IC50", "setting": "[1]", "value": 32.1, "unit": "nM"}]}
{"smiles": "CCNc1nc(Cl)nc(NCC)n1", "note": "[Simazin, simazine]", "values": [{"measurement": "IC50", "setting": "[1]", "value": 27.3, "unit": "nM"}]}
{"smiles": "CC(C)(C)C(O)(CCc1ccc(Cl)cc1)Cn1cncn1", "note": "(stereo not drawn) [Tebuconazole, tebuconazole]", "values": [{"measurement": "IC50", "setting": "[1]", "value": 3, "unit": "nM"}]}
